Data: article PMC11472313, “Development of Fragment-Based Inhibitors of the Bacterial Deacetylase LpxC with Low Nanomolar Activity” (Journal of Medicinal Chemistry, 2024)
≈ marks a conversion by molar mass, not a printed value.

What was measured:
E. coli LpxC (EcLpxC) = conditions: cited from earlier work
[1] = tested on: P. aeruginosa LpxC (PaLpxC); conditions: cited from earlier work
LasB = biological target: T1, LasB (Pseudomonas aeruginosa, UniProt Q02RJ6); conditions: cited from earlier work
T1 construct: The elastase LasB of P. aeruginosa is a secreted metalloprotease; endogenous in cells; host or cells: P. aeruginosa PA14 culture supernatant

E. coli BL21(DE3) = conditions: cited from earlier work
P. aeruginosa LpxC = biological target: T2, P. aeruginosa LpxC (Pseudomonas aeruginosa, UniProt P47205); experiment: LC–MS/MS-based determination of KM; format: biochemical; conditions: read-out: KM of the P. aeruginosa LpxC-catalyzed deacetylation; substrate 1, LC–MS/MS-based assay
T2 construct: made in house; host or cells: E. coli BL21(DE3)
Excerpt: (§1) Generally, the LC–MS/MS-based method represents an alternative to analyze compounds, which cannot be tested in the fluorescence-based assay, like primary amines and intrinsically fluorescent compounds. Additionally, it offers the advantage that lower substrate concentrations (10%) are used in the established protocol compared to the fluorescence-based assay, in which the detection of respectively low product concentrations would be difficult to detect due to inherently high background fluorescence. […] Additionally, the KM of E. coli LpxC C63A could be determined using the LC–MS/MS-based method (Figure S8, Supporting Information, vide supra).
Determination of enzymatic parameters
The values of KM and vmax for the E. coli LpxC C63A- as well as the P. aeruginosa LpxC-catalyzed deacetylation of UDP-3-O-[(R)-3-hydroxymyristoyl]-N-acetylglucosamine (1) were determined using the conditions of the established LC-MS/MS-based enzyme assay.
The wells in a black, non-binding, 96-well fluorescence microplate (Greiner Bio One, Frickenhausen) were filled with 93 µL of varying concentrations of UDP-3-O-[(R)-3-hydroxymyristoyl]-N-acetylglucosamine (26.9 µM, 10.8 µM, 2.69 µM, 1.08 µM, 0.538 µM, 0.269 µM) in assay buffer (40 mM sodium morpholinoethanesulfonic acid (pH = 6.0), 80 µM dithiothreitol, 0.02% Brij 35). […]

E. coli LpxC C63A [2] = biological target: T3, E. coli LpxC C63A (Escherichia coli, UniProt P0A725, C63A); experiment: LC–MS/MS-based determination of KM; format: biochemical; conditions: substrate 1, LC–MS/MS-based assay
T3 construct: made in house; host or cells: E. coli BL21(DE3)
Description: In order to determine the inhibitory activities of the compounds of interest toward E. coli LpxC, a fluorescence-based enzyme assay was deployed, in which the formed deacetylated natural product UDP-3-O-[(R)-3-hydroxymyristoyl]glucosamine (2) is transformed into a fluorescent isoindole with o-phthaldialdehyde and 2-mercaptoethanol.[48],[49] […] The KM of E. coli LpxC C63A was determined experimentally using a mass spectrometry-based LpxC assay (Figure S8, Supporting Information, vide infra).
as §1, with “supra). […]” for “supra).”
The values of KM and vmax for the E. coli LpxC C63A- as well as the P. aeruginosa LpxC-catalyzed deacetylation of UDP-3-O-[(R)-3-hydroxymyristoyl]-N-acetylglucosamine (1) were determined using the conditions of the established LC-MS/MS-based enzyme assay. […]

E. coli LpxC C63A [3] = biological target: T3, E. coli LpxC C63A; conditions: versus (2R,3S)-10; cited from earlier work

T1 sequence (Q02RJ6 198-498): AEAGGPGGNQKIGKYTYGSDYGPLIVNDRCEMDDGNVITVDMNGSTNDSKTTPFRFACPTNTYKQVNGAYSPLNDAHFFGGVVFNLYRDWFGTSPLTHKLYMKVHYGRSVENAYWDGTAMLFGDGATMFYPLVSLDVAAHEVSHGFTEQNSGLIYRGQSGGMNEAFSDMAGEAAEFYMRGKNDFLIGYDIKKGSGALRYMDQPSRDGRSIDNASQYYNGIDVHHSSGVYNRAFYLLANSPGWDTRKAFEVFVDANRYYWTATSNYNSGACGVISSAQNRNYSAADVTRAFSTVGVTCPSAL
T3 sequence (P0A725 whole entry C63A): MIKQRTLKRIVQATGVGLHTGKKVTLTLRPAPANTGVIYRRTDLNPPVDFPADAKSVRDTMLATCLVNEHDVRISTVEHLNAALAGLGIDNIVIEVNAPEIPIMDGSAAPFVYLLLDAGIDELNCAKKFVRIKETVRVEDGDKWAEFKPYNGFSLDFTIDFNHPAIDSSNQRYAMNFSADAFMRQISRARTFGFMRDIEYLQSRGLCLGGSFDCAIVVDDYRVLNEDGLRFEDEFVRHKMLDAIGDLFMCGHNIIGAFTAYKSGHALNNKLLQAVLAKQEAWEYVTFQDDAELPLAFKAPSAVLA
T2 sequence (P47205 whole entry): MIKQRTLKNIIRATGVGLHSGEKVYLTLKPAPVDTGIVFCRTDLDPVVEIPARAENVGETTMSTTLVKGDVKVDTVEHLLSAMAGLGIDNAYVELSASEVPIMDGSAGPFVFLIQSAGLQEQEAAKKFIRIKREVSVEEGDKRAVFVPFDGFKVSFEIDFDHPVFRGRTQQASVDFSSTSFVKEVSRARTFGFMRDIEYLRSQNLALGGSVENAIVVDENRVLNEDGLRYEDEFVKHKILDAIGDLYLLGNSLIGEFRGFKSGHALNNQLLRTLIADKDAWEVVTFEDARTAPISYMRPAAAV

O=c1ccn([C@@H]2O[C@H](CO/N=C/c3ccc(O)c(O)c3O)[C@@H](O)[C@H]2O)c(=O)[nH]1 [1-68A, 1–68A]
IC50 (E. coli LpxC (EcLpxC)): 27000 nM

CCc1ccc(-c2ccc(C(=O)N[C@H](C(=O)NO)[C@@H](C)NCc3ccccn3)cc2)cc1 [7d]
PaLpxC: IC50 [1]: 0.041 µg/mL

Cc1noc(C)c1COC[C@H](O)[C@H](OCc1ccc(C#Cc2ccc(CN3CCOCC3)cc2)cc1)C(=O)NO [(2S,3S)-40]
LasB Inhibition at 20 μM (LasB): n.i. (n.i.: <10% inhibition)

O=C(NO)[C@H](OCc1ccc(C#Cc2ccc(CN3CCOCC3)cc2)cc1)[C@H](O)COCc1ccccc1 [(2R,3R)-10]
LasB Inhibition at 20 μM (LasB): n.i. (n.i.: <10% inhibition)

Cc1cc([C@H](O)[C@](C)(OCc2ccc(-c3ccccc3)cc2)C(=O)NO)no1 [5d]
IC50 [1]: 0.4 nM

O=C(NO)[C@H](OCc1ccc(C#Cc2ccc(CN3CCOCC3)cc2)cc1)[C@@H](O)COCc1ccccc1 [(2R,3S)-10]
MIC E. coli BL21(DE3) (E. coli BL21(DE3)): >64 µg/mL | LasB Inhibition at 20 μM (LasB): n.i. (n.i.: <10% inhibition)

CC(O)C(NC(=O)c1ccc(C#CC#Cc2ccc(N)cc2)cc1)C(=O)NO (centres unmarked) [LPC-011]
Ki (E. coli LpxC (EcLpxC)): 0.039 nM

C[C@@](OCc1ccc(-c2ccccc2)cc1)(C(=O)NO)[C@@H](O)c1ccccn1 [5b]
IC50 [1]: 15 nM

C[C@@](OCc1ccc(-c2ccccc2)cc1)(C(=O)NO)[C@@H](O)c1cnc[nH]1 [5c]
IC50 [1]: 0.8 nM

CCCCCCCCCCCC(O)CC(=O)OC1C(O)C(CO)OC(OP(=O)(O)OP(=O)(O)OCC2OC(n3ccc(=O)[nH]c3=O)C(O)C2O)C1NC(C)=O [compound 1, UDP-3-O-[(R)-3-hydroxymyristoyl]-N-acetylglucosamine]
Km (P. aeruginosa LpxC): 4.7 µM | Km (E. coli LpxC C63A [2]): 3.6 µM

C[C@@](CO)(OCc1ccc(-c2ccccc2)cc1)C(=O)NO [5a]
IC50 [1]: 22 nM

CC(O)(c1ccc(O)cc1)C(NC(=O)c1ccc(C#CC#Cc2ccc(N)cc2)cc1)C(=O)NO (centres unmarked) [3b]
Ki (E. coli LpxC (EcLpxC)): 0.024 nM

CCc1ccc(-c2ccc(C(=O)N[C@H](C(=O)NO)[C@@H](C)N)cc2)cc1 [7a]
PaLpxC: IC50 [1]: 0.0005 µg/mL

O=C(NO)[C@@H](OCc1ccc(C#Cc2ccc(CN3CCOCC3)cc2)cc1)[C@@H](O)COCc1ccccc1 [(2S,3S)-10]
MIC E. coli BL21(DE3) (E. coli BL21(DE3)): 4.0 µg/mL (≈ 7.54 µM) | fold higher LpxC inhibitory activity than its (2R)-configured diastereomer (E. coli LpxC C63A [3]): about 3 fold
